Entries after “also recorded” stand apart in the source; their conditions may differ.

One series is described as follows: Gas solubility. The series is classed as physicochemical.
Series [1] has as its system amylase, amyloglucosidase and glucose isomerase. Briefly: Enzymatic reaction enhancement in the HFCS process (all three enzymes). In kind it is biochemical. The source says:
Generally, in accordance with the present invention, enzymatic reaction enhancements measured in terms of either rate of yield or stability parameters, and are relative to reactions conducted in air or with no added gases, or to reactions run with added nitrogen, or to a combination of the above. Depending upon the relative controls, enhancements of rate between about 0 and 20% and yield enhancements of about 0 to 5% for glucose isomerase have been obtained.

The next series has as its target T1, amyloglucosidase (Aspergillus niger, UniProt P69328).
T1 construct: purchased Sigma Chemical A-7420
Briefly: Effect of noble gases on amyloglucosidase reaction. The series is classed as biochemical. The settings on record: amylyoglucoside (so in the source), generally observed. The source says: 1. Reaction Principle: [drawing 3] 2. Solution Preparation:

The target of series [2] is T2, glucose isomerase (Streptomyces murinus, UniProt P37031).
T2 construct: purchased Novo Sweetzyme T
Put plainly: Effect of gases on glucose isomerase reaction (vial runs, general statements). In kind it is biochemical. Particulars: for order of enhancing effect: glucose isomerase, generally observed. The procedure: Two sets of 125 ml serum vials are prepared for each studied gas, one containing the glucose substrate solution (80 ml per vial) and the other one containing Sweetzyme T (5 g dry/vial).
On day D, place the substrate vials into a shaking water bath (60° C., 140 rpm). Allow them to equilibrate in temperature. For each substrate vial, fill a 60 cc B-D syringe with the appropriate gas or gas mixture and inject it in the vial. Remove the substrate vial from the shaker bath and replace it with the corresponding enzyme vial. Allow the positive pressure in the substrate vial to fill the syringe with glucose solution up to 60 ml. Stopper syringe needle with a septum. Repeat this procedure for each vial. When all the substrate vials have been sampled, inject the content of each syringe (60 ml of gas-saturated glucose solution) into the corresponding enzyme vial. The enzyme vials are injected at 2 minute intervals. The time of the injection determine t0 for each vial.
The respective concentrations of glucose and fructose in the samples are determined by High Pressure Liquid Chromatography.

In a further series the test system is α-amylase. Briefly: Effect of noble gases on α-amylase reaction. Particulars: generally observed. The series is classed as biochemical, Bacillus licheniformis. The source says:
PNPG7 is p-nitrophenyl-α-D-maltoheptaoside.
1. Reaction Principle: [drawing 3] 2.

The target of series [3] is T2, glucose isomerase. Briefly: Glucose isomerase column runs under gas saturation (Example 7). The series is classed as biochemical. The settings on record: for reaching point of equilibrium (fructose to glucose vs glucose to fructose conversion): 100 hr run, gas saturated columns, FIG. 13; for averages of fructose to glucose and glucose to fructose conversions: averages for each gas, FIG. 15; for conversion of glucose to fructose (activity+flow rate difference): lower flow rate, under Ne, Ar and N2, FIG. 11. The procedure:
A comprehensive experiment was undertaken in order to relate the effects of noble gases upon the important process parameters of temperature, flow rate, enzyme activity and reaction equilibrium. In this experiment, four identical jacketed 1.6×35 cm (70 cc bed volume) columns containing 15 grams dry weight (40 cc bed volume) of the glucose isomerase packing used in the Vial. Runs were prepared according to the protocol outlined above. The columns and substrates were saturated with the gas of interest from a choice of argon, neon, nitrogen, krypton, xenon, helium, or a decile combination of any two or three of these.
One column was run at 0.2 ml/min at 50°, one at 0.2 ml/min at 60°, one at 0.5 ml/min at 50°, and one at 0.5 ml/min at 60°. […] During the first set of experiments, glucose feedstock (as prepared above) was used. During the second set, fructose feedstock of identical concentration was used to analyze the reverse reaction.
Data collected included flow rate, % glucose, % fructose, quantitative evaluation of fructose and glucose, dry solids, temperature, and residual gases.
Comparison of the data for each combination of experiments allows the determination of the effect of the gas, the temperature, the flow rate, the enzyme activity, and the reaction equilibrium. These are each determined independently, then the contribution of each parameter to the others can be calculated. For instance, elevating the temperature increases the flow rate, while lowering temperature and increasing the flow rate maximizes gas effects.

T2 sequence (P37031 whole entry): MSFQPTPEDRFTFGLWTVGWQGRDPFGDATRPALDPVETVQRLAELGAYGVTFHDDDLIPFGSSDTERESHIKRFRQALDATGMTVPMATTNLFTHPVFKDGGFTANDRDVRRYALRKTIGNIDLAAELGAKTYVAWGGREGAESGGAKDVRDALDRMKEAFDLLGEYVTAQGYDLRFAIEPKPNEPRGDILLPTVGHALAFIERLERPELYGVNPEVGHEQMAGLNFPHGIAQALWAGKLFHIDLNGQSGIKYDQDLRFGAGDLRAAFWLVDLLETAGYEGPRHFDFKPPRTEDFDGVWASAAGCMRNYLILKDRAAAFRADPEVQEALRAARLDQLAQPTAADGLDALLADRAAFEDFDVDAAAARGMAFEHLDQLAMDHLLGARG
T1 sequence (P69328 25-640): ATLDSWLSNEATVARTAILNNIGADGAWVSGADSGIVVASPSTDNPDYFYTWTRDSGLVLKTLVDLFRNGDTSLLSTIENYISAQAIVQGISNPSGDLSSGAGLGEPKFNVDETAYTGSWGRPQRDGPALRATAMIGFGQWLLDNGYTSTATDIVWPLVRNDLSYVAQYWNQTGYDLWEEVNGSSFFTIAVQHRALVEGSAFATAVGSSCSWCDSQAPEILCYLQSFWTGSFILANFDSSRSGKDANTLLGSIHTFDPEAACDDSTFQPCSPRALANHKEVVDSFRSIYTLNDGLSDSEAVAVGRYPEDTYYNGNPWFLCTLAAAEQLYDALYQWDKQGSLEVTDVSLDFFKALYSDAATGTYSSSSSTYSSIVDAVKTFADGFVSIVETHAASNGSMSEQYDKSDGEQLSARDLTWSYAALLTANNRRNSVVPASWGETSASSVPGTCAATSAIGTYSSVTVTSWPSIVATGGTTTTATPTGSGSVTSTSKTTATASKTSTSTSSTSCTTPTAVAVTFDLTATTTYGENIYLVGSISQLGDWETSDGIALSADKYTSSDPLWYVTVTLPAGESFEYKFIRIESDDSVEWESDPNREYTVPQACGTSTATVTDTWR

For the compound `[He]` [helium], the solubility entry in “Gas solubility” is reported as “low solubility”. Also, the “effectiveness in enhancing enzymatic activity” value in series [1] is recorded as “effective”. Moreover, the “order of enhancing effect” value on amyloglucosidase is on record as “Xe>Ar>Ne>Kr>He”; on glucose isomerase [2] it was “Ne>Ar>Kr>Xe>He”; in the series on α-amylase it was “Xe>Ar>Ne>Kr>He”.
With `[Kr]` [krypton], the “order of enhancing effect” value on amyloglucosidase was “Xe>Ar>Ne>Kr>He”; at glucose isomerase [2] it was “Ne>Ar>Kr>Xe>He”; in the series with α-amylase, “Xe>Ar>Ne>Kr>He”.
With `[Xe]` [xenon], the “order of enhancing effect” value at amyloglucosidase is “Xe>Ar>Ne>Kr>He”; at glucose isomerase [2], “Ne>Ar>Kr>Xe>He”; with α-amylase, “Xe>Ar>Ne>Kr>He”.
In the case of `[Ar]` [argon], the “order of enhancing effect” value at amyloglucosidase is reported as “Xe>Ar>Ne>Kr>He”. Besides, the “order of enhancing effect” value at glucose isomerase [2] is recorded as “Ne>Ar>Kr>Xe>He”. For the same compound, at glucose isomerase [3], the “reaching point of equilibrium (fructose to glucose vs glucose to fructose conversion)” value is listed as “reach equilibrium before nitrogen saturated columns”; the “averages of fructose to glucose and glucose to fructose conversions” value is “improvement”; the “conversion of glucose to fructose (activity+flow rate difference)” value was “highest conversion”. Besides, the “order of enhancing effect” value in the series with α-amylase is given as “Xe>Ar>Ne>Kr>He”.
Regarding `[Ne]` [neon], at amyloglucosidase, the “order of enhancing effect” value was “Xe>Ar>Ne>Kr>He”. The “order of enhancing effect” value on glucose isomerase [2] is “Ne>Ar>Kr>Xe>He”. At glucose isomerase [3], the “reaching point of equilibrium (fructose to glucose vs glucose to fructose conversion)” value was “reach equilibrium before nitrogen saturated columns”; the “averages of fructose to glucose and glucose to fructose conversions” value is “improvement”; the “conversion of glucose to fructose (activity+flow rate difference)” value is reported as “significant but lesser enhancement over nitrogen”. Besides, the “order of enhancing effect” value in the series on α-amylase is given as “Xe>Ar>Ne>Kr>He”.
For the compound `O=O` [oxygen], the “inhibition of glucose isomerase / Sweetzyme T activity” value against glucose isomerase [2] is given as “greatly inhibited; also recorded: inhibitor”.
